Results reported in patent US20040116348A1, “Polymer-linker-drug conjugates for targeted drug delivery” (priority 2002, published 2004).

Experiments:
[1] = test system: PC-3 (a human prostate tumor cell line); experiment: MTT cytotoxicity, PC-3; type: cell-based
Description: (§1) Open circles in FIGS. 6A-F represent free doxorubicin and closed circles represent LIG-doxorubicin.
(§2) Cell survival was assayed using an indirect colorimetric […] (MTT assay, e.g., see Alley et al., Cancer Res. 48:589, 1988). The tetrazolium salt MTT is metabolized by NAD-dependent dehydrogenase to form a colored reaction product and the amount of dye formed directly correlates with the number of viable cells. The formula for calculating % survival is given by:
(§3) %survival=(Ti−Tz)/(C−Tz) if Ti≧Tz or
(§4) %survival=(Ti−Tz)/Tz if Ti<Tz
(§5) where Ti=Net MTT reading of test growth in the presence of drugs; Tz=Net MTT reading at time zero with respect to the drug test; and C=Net MTT reading of control growth (see Grever et al., Seminars in Oncology, 19:622, 1992 and Boyd and Paull, Drug Development Research 34:91, 1995).

[2] = test system: U-87 (a human glioblastoma cell line); experiment: MTT cytotoxicity, U-87; type: cell-based
Description: as §1, §2, §3, §4, §5

[3] = test system: MGH-U1 (a human bladder cell line); experiment: MTT cytotoxicity, MGH-U1; type: cell-based
Description: as §1, §2, §3, §4, §5

[4] = test system: KK-47 (a human bladder tumor cell line); experiment: MTT cytotoxicity, KK-47; type: cell-based
Description: as §1, §2, §3, §4, §5

[5] = test system: HT-1080 (a human fibrosarcoma line); experiment: MTT cytotoxicity, HT-1080; type: cell-based
Description: as §1, §2, §3, §4, §5
(§6) The cytotoxicity of methotrexate and various peptidyl-methotrexates were compared in order to assess bulk tolerance. The peptidyl-methotrexates were prepared by linking short peptides of three to four amino acids to methotrexate. […] Methotrexate was covalently coupled to the N-terminal end of the peptides via the γ-carboxyl of its glutamic acid (Nagy et al., Proc. Nat. Acad. Sci. USA 90:6373, 1993). […] Cytotoxicity was assayed as described above in Example 4. […] Example 8 describes the synthesis of certain dextran-oligopeptide-methotrexate conjugates.

[6] = test system: BT-20 (a human breast carcinoma line); experiment: MTT cytotoxicity, BT-20; type: cell-based
Description: as §1, §2, §3, §4, §5, §6

[7] = test system: RT-112 (human urinary bladder transitional carcinoma line); experiment: MTT cytotoxicity, RT-112; type: cell-based
Description: as §2, §3, §4, §5
The cytotoxicity of methotrexate and various peptidyl-methotrexates were compared in order to assess bulk tolerance. The peptidyl-methotrexates were prepared by linking short peptides of three to four amino acids to methotrexate. The peptides were chosen to represent appropriate cleavage fragments from the MMP-2 sensitive substrate peptide IPVGLIG that was characterized in Examples 1-2. Methotrexate was covalently coupled to the N-terminal end of the peptides via the γ-carboxyl of its glutamic acid (Nagy et al., Proc. Nat. Acad. Sci. USA 90:6373, 1993). […]

[8] = test system: human tumor cell lines; experiment: MTT cytotoxicity, overall statement over the panel of human tumor cell lines; type: cell-based; conditions: three human tumor cell lines
Description: as §2, with “by: […]” for “by:”

[9] = test system: HT-1080 tumors; experiment: In vivo anti-tumor efficacy in SCID mice bearing HT-1080 tumors; conditions: end of study; 50 mg methotrexate/kg i.p. on day 1, 8 and 15
Description: Each group included three mice.
The dosage chosen for these experiments was based on the reported optimum dosage of free methotrexate for treating tumor-bearing mice (Burger et al., Int. J. Cancer 92:718, 2001). Three weekly injections at 50 mg of methotrexate/kg of body weight was half the maximum tolerated dosage. In another set of experiments the dosage was increased to three weekly injections of 100 mg/kg, or to injections of 50 mg/kg twice per week.

[10] = Body weight change as indicator of toxic side effects in SCID mice bearing HT-1080 tumors; conditions: 50 mg methotrexate/kg i.p. on day 1, 8 and 15
Description: After 7-10 days, tumors of size 150-300 mm^3 were established on each mouse. […] Weight and tumor size were monitored three times a week. Tumor size was calculated as width^2×length×0.52. […] As a second control, another group of mice were injected with phosphate buffered saline. Each group included three mice.

Compound	cytotoxicity (% survival, MTT) [1]	cytotoxicity (% survival, MTT) [2]	cytotoxicity (% survival, MTT) [3]	cytotoxicity (% survival, MTT) [4]	cytotoxicity (% survival, MTT) [5]	cytotoxicity (% survival, MTT) [6]	cytotoxicity (% survival, MTT) [7]	cytotoxicity relative to free methotrexate [8]	tumor growth suppression compared to saline control [9] [%]	body weight drop compared to initial weight [10] [%]
CC[C@H](C)[C@H](NC(=O)[C@@H](N)CC(C)C)C(=O)NCC(=O)N[C@H]1C[C@H](O[C@H]2C[C@](O)(C(=O)CO)Cc3c(O)c4c(c(O)c32)C(=O)c2c(OC)cccc2C4=O)O[C@@H](C)[C@H]1O [LIG-doxorubicin]	cytotoxic	cytotoxic	cytotoxic	cytotoxic	cytotoxic	cytotoxic	–	–	–	–
CC(C)[C@H](NC(=O)[C@@H]1CCCN1C(=O)CC[C@H](NC(=O)c1ccc(N(C)Cc2cnc3nc(N)nc(N)c3n2)cc1)C(=O)O)C(=O)NCC(=O)O [methotrexate-PVG]	–	–	–	–	cytotoxic	cytotoxic	cytotoxic	comparable	–	–
CN(Cc1cnc2nc(N)nc(N)c2n1)c1ccc(C(=O)N[C@@H](CCC(=O)O)C(=O)O)cc1 [methotrexate]	–	–	–	–	–	–	–	–	48	13
